Entries after “also recorded” stand apart in the source; their conditions may differ.

Test [1] deals with hKV1.3. It counts as cell-based, human. The source says: (§1) We, therefore, aimed at testing the pharmacological activity of sCm39 on a battery of various potassium and sodium ion channels. Among the tested channels were six members of human voltage-gated K^+ (hKV) channels from Shaker family, hKV1.1-hKV1.6 (Figure 3A–F) and three members of Ca^2+-activated potassium channel; hKCa2.2 (SK2, Figure 3I), the small-conductance Ca^2+-activated channel; hKCa3.1 (IKCa1, SK4. Figure 3J), the intermediate-conductance Ca^2+-activated channel expressed in T lymphocytes; and mKCa1.1 (BK, Slo1, MaxiK, Figure 3H), the large-conductance voltage- and Ca^2+-activated channel of mice. In addition, we also screened the effect of Cm39 on hKV11.1 (hERG1, Figure 3G), a voltage-gated cardiac K^+ channel, and two human voltage-gated sodium (hNaV) channels, hNaV1.4 (Figure 3K) and hNaV1.5 (Figure 3L), expressed in skeletal and cardiac muscles, respectively. These ion channels were heterologously expressed in the CHO or HEK cell lines except for KV1.3. Human peripheral T lymphocytes. They were stimulated with Phytohemagglutinin A (PHA) to increase the KV1.3 channel expression, and Ca^2+-free intracellular solution was used to avoid KCa3.1 channel activation. Appropriate depolarization protocols were used to record ionic currents in voltage-clamped cells (see Figure 3 insets and Material and Methods for details). Freshly dissolved sCm39 in extracellular solution was applied at 1 µM concentration on the cell using a custom-built micro-perfusion system at ~200 µL/min flow rate.
For the measurement of KV1.x, mKCa1.1 and NaV1.x currents the extracellular solution was composed of (in mM) 145 NaCl, 5 KCl, 2.5 CaCl2, 1 MgCl2, 10 HEPES and 5.5 glucose, pH 7.35. In the HK-150 and Na^+-free bath solution bath all Na^+ was substituted by K^+ or Choline-Cl, respectively, other ingredients remained unchanged. […]
Whole-cell currents were recorded in voltage-clamped cells following standard protocols by using a Multiclamp 700B amplifier connected to a computer with Axon Digidata1440 digitizer and for data acquisition, Clampex 10.7 software was used (Molecular Devices).

The test system of test [2] is hNaV1.4. Nature of the test: Whole-cell patch-clamp, block of NaV1.4 current. It counts as cell-based, human. The note with it: HEK 293 cells.
Text: as §1, with “They were stimulated with Phytohemagglutinin A (PHA) to increase the KV1.3 channel expression, and Ca^2+-free intracellular solution was used to avoid KCa3.1 channel activation. Appropriate depolarization protocols were used to record ionic currents in voltage-clamped cells (see Figure 3 insets and Material and Methods for details). Freshly dissolved sCm39 in extracellular solution was applied at 1 µM concentration on the cell using a custom-built micro-perfusion system at ~200 µL/min flow rate.” left out
Whole-cell currents were recorded in voltage-clamped cells following standard protocols by using a Multiclamp 700B amplifier connected to a computer with Axon Digidata1440 digitizer and for data acquisition, Clampex 10.7 software was used (Molecular Devices). […]
(In general: In patch-clamp work, channel activity is measured electrically.)

Consider `CC[C@H](C)[C@@H]1NC(=O)[C@H](C)NC(=O)[C@H](C)NC(=O)[C@H](CCCCN)NC(=O)[C@@H]2CSSC[C@@H](C(=O)N[C@@H](Cc3ccc(O)cc3)C(=O)N[C@@H](Cc3ccc(O)cc3)C(=O)O)NC(=O)[C@H](CCCCN)NC(=O)[C@@H]3CSSC[C@H](NC(=O)[C@H](CCC(=O)O)NC(=O)[C@H](CO)NC(=O)[C@H](CO)NC(=O)[C@H](CO)NC(=O)[C@H](CCCCN)NC(=O)[C@@H](NC(=O)[C@H](CCCCN)NC(=O)[C@H](Cc4c[nH]cn4)NC(=O)[C@H](CC(N)=O)NC(=O)[C@@H](NC(=O)[C@H](Cc4ccccc4)NC(=O)[C@@H](N)[C@@H](C)O)[C@@H](C)CC)CSSC[C@H](NC(=O)[C@H](CCCCN)NC(=O)CNC(=O)[C@H](CO)NC(=O)[C@H](C)NC(=O)[C@H](CCCNC(=N)N)NC(=O)CNC1=O)C(=O)N[C@@H]([C@@H](C)CC)C(=O)N[C@@H](CC(N)=O)C(=O)N[C@@H](CO)C(=O)N[C@@H]([C@@H](C)O)C(=O)N3)C(=O)N[C@@H](CC(C)C)C(=O)N1CCC[C@H]1C(=O)N[C@@H](C)C(=O)N2` [Cm39], for which the decrease in current in test [1] (1 µM, PHA-activated human peripheral T lymphocytes, 3−5 min, n = 3−5) is < 3%; in test [2] (1 µM, 3−5 min, n = 3−5), < 3%. Besides, the “inhibition (in words)” value in test [1] (1 μM, human peripheral T lymphocytes) was “does not inhibit; also recorded: did not show any effect”; in test [2] (1 μM), “does not inhibit; also recorded: did not show any effect”.
